Tests used:
Experiment in all cases: KinaseProfiler
Format in all cases: biochemical
Details in all cases: 10 μM, ATP near Km
PKCtheta = target: T1, PKCtheta (Homo sapiens, UniProt Q04759)
T1 construct: purchased Millipore, Inc. (KinaseProfiler service)
Method: (§1) A representative compound (Example 15) of the invention was tested for off-target kinase activity at a concentration of 10 μM by Millipore, Inc. in their KinaseProfiler™ service against all the kinases available in their full kinase panel. The compound was run in duplicate at a concentration of ATP near the Km for each individual kinase according to Millipore's specifications. The results are shown in Table B. Data are reported as percent of control (POC) and are the average of the two replicates.

BTK = target: T2, BTK (Homo sapiens, UniProt Q06187)
T2 construct: purchased Millipore (KinaseProfiler service)
Method: as §1

mTOR = target: T3, mTOR (Homo sapiens, UniProt P42345)
T3 construct: purchased Millipore, Inc. (KinaseProfiler service)
Method: as §1

ALK = target: T4, ALK (Homo sapiens, UniProt Q9UM73)
T4 construct: purchased Millipore (KinaseProfiler service)
Method: as §1

IRR = target: T5, IRR (Homo sapiens, UniProt P14616)
T5 construct: purchased Millipore, Inc. (KinaseProfiler service)
Method: as §1

EphA3 = target: T6, EphA3 (Homo sapiens, UniProt P29320)
T6 construct: purchased Millipore, Inc. (KinaseProfiler service)
Method: as §1

CAMK1 = target: T7, CAMK1 (Homo sapiens, UniProt Q14012)
T7 construct: purchased Millipore (KinaseProfiler service)
Method: as §1

Lck = target: T8, Lck (Homo sapiens, UniProt P06239)
T8 construct: purchased Millipore, Inc. (KinaseProfiler service)
Method: as §1

ROCK-I = target: T9, ROCK-I (Homo sapiens, UniProt Q13464)
T9 construct: purchased Millipore, Inc. (KinaseProfiler service)
Method: as §1

p38delta = target: T10, p38delta (Homo sapiens, UniProt O15264)
T10 construct: purchased Millipore, Inc. (KinaseProfiler service)
Method: as §1

ZAP-70 = target: T11, ZAP-70 (Homo sapiens, UniProt P43403)
T11 construct: purchased Millipore, Inc. (KinaseProfiler service)
Method: as §1

ITK = target: T12, ITK (Homo sapiens, UniProt Q08881)
T12 construct: purchased Millipore, Inc. (KinaseProfiler service)
Method: as §1

LKB1 = target: T13, LKB1 (Homo sapiens, UniProt Q15831)
T13 construct: purchased Millipore, Inc. (KinaseProfiler service)
Method: as §1

DAPK2 = target: T14, DAPK2 (Homo sapiens, UniProt Q9UIK4)
T14 construct: purchased Millipore, Inc. (KinaseProfiler service)
Method: as §1

GRK7 = target: T15, GRK7 (Homo sapiens, UniProt Q8WTQ7)
T15 construct: purchased Millipore, Inc. (KinaseProfiler service)
Method: as §1

IR = target: T16, IR (Homo sapiens, UniProt P06213)
T16 construct: purchased Millipore, Inc. (KinaseProfiler service)
Method: as §1

SRPK1 = target: T17, SRPK1 (Homo sapiens, UniProt Q96SB4)
T17 construct: purchased Millipore, Inc. (KinaseProfiler service)
Method: as §1

CLK2 = target: T18, CLK2 (Homo sapiens, UniProt P49760)
T18 construct: purchased Millipore, Inc. (KinaseProfiler service)
Method: as §1

FGFR3 = target: T19, FGFR3 (Homo sapiens, UniProt P22607)
T19 construct: purchased Millipore, Inc. (KinaseProfiler service)
Method: as §1

Flt3 = target: T20, Flt3 (Homo sapiens, UniProt P36888)
T20 construct: purchased Millipore, Inc. (KinaseProfiler service)
Method: as §1

Rsk1 = target: T21, Rsk1 (Homo sapiens, UniProt Q15418)
T21 construct: purchased Millipore, Inc. (KinaseProfiler service)
Method: as §1

PDGFRbeta = target: T22, PDGFRbeta (Homo sapiens, UniProt P09619)
T22 construct: purchased Millipore, Inc. (KinaseProfiler service)
Method: as §1

TAO2 = target: T23, TAO2 (Homo sapiens, UniProt Q9UL54)
T23 construct: purchased Millipore, Inc. (KinaseProfiler service)
Method: as §1

CLK3 = target: T24, CLK3 (Homo sapiens, UniProt P49761)
T24 construct: purchased Millipore, Inc. (KinaseProfiler service)
Method: as §1

Met = target: T25, Met (Homo sapiens, UniProt P08581)
T25 construct: purchased Millipore, Inc. (KinaseProfiler service)
Method: as §1

PRK2 = target: T26, PRK2 (Homo sapiens, UniProt Q16513)
T26 construct: purchased Millipore, Inc. (KinaseProfiler service)
Method: as §1

MLK1 = target: T27, MLK1 (Homo sapiens, UniProt P80192)
T27 construct: purchased Millipore, Inc. (KinaseProfiler service)
Method: as §1

PKAC-alpha = target: T28, PKAC-alpha (Homo sapiens, UniProt P17612)
T28 construct: purchased Millipore, Inc. (KinaseProfiler service)
Method: as §1

CK2alpha2 = target: T29, CK2alpha2 (Homo sapiens, UniProt P19784)
T29 construct: purchased Millipore, Inc. (KinaseProfiler service)
Method: as §1

EphA2 = target: T30, EphA2 (Homo sapiens, UniProt P29317)
T30 construct: purchased Millipore, Inc. (KinaseProfiler service)
Method: as §1

p38beta = target: T31, p38beta (Homo sapiens, UniProt Q15759)
T31 construct: purchased Millipore, Inc. (KinaseProfiler service)
Method: as §1

eEF-2K = target: T32, eEF-2K (Homo sapiens, UniProt O00418)
T32 construct: purchased Millipore, Inc. (KinaseProfiler service)
Method: as §1

PAK6 = target: T33, PAK6 (Homo sapiens, UniProt Q9NQU5)
T33 construct: purchased Millipore, Inc. (KinaseProfiler service)
Method: as §1

BLK_m = target: T34, BLK_m (Mus musculus, UniProt P16277)
T34 construct: purchased Millipore (KinaseProfiler service)
Method: as §1

JNK2alpha2 = target: T35, JNK2alpha2 (Homo sapiens, UniProt P45984)
T35 construct: purchased Millipore, Inc. (KinaseProfiler service)
Method: as §1

Lyn = target: T36, Lyn (Homo sapiens, UniProt P07948)
T36 construct: purchased Millipore, Inc. (KinaseProfiler service)
Method: as §1

CK1_y = test system: CK1_y
Method: as §1

PASK = target: T37, PASK (Homo sapiens, UniProt Q96RG2)
T37 construct: purchased Millipore, Inc. (KinaseProfiler service)
Method: as §1

MST3 = target: T38, MST3 (Homo sapiens, UniProt Q9Y6E0)
T38 construct: purchased Millipore, Inc. (KinaseProfiler service)
Method: as §1

Pim-3 = target: T39, Pim-3 (Homo sapiens, UniProt Q86V86)
T39 construct: purchased Millipore, Inc. (KinaseProfiler service)
Method: as §1

Fms = target: T40, Fms (Homo sapiens, UniProt P07333)
T40 construct: purchased Millipore, Inc. (KinaseProfiler service)
Method: as §1

T40 sequence (P07333 20-972): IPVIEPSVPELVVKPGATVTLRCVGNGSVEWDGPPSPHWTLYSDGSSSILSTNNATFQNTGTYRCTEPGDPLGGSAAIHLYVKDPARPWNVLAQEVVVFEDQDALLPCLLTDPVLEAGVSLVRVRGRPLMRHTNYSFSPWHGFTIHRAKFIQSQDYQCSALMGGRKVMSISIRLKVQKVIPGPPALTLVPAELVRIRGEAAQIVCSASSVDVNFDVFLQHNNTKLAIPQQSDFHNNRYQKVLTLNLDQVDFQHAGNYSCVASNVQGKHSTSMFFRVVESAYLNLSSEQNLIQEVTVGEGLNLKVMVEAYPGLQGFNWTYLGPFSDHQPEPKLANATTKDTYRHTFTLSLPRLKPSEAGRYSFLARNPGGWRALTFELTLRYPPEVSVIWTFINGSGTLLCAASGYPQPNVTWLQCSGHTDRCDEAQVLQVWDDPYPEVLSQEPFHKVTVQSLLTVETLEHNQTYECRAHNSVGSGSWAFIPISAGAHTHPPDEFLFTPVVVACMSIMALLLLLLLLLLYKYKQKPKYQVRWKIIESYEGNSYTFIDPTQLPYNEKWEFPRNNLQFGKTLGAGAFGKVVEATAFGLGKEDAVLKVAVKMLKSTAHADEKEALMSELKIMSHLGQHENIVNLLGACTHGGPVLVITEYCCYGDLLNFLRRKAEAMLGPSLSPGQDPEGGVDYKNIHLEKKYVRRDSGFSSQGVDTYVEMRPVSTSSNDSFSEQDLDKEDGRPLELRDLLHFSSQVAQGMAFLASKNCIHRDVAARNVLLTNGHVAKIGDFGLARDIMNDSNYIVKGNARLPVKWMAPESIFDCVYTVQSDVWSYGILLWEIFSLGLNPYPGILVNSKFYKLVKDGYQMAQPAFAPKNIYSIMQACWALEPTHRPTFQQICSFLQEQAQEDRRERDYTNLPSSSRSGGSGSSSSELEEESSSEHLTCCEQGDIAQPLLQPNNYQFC
T8 sequence (P06239 whole entry): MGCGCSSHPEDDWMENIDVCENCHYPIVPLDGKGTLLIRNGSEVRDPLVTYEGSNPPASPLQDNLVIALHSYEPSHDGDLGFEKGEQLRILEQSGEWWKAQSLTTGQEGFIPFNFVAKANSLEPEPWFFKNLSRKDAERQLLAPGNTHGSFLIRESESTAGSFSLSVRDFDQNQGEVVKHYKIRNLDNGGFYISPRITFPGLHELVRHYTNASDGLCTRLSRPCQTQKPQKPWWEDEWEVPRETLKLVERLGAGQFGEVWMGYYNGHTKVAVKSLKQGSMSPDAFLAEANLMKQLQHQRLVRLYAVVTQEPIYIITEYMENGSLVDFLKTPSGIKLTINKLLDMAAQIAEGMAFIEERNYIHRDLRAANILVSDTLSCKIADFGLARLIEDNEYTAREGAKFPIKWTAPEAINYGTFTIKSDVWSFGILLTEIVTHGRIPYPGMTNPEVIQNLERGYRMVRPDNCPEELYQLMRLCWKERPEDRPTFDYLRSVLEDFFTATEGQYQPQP
T5 sequence (P14616 27-1297): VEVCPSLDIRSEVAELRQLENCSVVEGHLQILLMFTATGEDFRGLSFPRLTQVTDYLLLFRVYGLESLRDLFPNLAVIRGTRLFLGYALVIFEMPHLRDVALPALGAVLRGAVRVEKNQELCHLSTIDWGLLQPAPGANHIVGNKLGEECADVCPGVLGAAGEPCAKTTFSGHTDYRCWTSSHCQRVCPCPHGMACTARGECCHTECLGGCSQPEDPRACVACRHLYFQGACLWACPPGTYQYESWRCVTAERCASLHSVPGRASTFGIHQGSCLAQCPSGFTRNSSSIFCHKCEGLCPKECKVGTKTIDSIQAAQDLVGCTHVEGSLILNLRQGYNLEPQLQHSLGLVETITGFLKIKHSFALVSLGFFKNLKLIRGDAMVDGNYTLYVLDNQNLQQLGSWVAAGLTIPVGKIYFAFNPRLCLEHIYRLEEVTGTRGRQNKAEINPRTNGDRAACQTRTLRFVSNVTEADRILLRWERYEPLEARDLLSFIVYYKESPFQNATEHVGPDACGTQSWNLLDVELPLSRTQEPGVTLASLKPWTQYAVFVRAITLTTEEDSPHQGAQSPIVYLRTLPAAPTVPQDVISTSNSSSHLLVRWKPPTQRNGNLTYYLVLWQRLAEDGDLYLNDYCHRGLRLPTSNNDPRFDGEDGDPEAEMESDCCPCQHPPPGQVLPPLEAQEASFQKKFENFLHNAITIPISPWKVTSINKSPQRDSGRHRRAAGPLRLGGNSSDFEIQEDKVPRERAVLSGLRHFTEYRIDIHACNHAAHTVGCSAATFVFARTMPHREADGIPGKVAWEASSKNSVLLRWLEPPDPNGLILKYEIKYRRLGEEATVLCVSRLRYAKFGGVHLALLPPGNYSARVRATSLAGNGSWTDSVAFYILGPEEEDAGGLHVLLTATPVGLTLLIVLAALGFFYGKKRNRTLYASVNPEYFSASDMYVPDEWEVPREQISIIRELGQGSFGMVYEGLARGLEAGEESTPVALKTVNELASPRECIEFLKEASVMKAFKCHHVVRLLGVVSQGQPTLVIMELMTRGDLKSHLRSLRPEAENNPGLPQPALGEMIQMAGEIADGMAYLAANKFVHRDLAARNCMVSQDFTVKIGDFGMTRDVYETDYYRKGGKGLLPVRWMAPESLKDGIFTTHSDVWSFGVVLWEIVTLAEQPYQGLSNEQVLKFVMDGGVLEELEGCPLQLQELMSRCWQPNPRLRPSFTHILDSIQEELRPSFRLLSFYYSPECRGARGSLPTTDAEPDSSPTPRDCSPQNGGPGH
T12 sequence (Q08881 whole entry): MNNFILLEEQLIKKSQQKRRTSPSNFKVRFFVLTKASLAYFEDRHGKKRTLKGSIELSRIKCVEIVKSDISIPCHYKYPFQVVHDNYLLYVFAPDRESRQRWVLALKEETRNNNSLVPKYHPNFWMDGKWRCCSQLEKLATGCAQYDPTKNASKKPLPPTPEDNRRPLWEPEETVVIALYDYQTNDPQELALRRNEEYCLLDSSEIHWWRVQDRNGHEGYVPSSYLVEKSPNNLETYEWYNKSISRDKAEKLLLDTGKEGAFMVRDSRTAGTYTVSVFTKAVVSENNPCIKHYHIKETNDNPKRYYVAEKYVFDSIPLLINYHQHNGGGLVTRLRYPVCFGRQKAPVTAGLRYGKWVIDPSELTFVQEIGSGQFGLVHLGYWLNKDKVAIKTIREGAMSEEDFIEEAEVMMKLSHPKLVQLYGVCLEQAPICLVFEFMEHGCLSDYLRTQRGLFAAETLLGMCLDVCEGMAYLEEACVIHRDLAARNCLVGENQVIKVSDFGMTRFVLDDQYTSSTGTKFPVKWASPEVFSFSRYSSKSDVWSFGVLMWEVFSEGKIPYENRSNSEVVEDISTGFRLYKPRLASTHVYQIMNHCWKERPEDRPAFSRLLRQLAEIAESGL
T18 sequence (P49760 whole entry): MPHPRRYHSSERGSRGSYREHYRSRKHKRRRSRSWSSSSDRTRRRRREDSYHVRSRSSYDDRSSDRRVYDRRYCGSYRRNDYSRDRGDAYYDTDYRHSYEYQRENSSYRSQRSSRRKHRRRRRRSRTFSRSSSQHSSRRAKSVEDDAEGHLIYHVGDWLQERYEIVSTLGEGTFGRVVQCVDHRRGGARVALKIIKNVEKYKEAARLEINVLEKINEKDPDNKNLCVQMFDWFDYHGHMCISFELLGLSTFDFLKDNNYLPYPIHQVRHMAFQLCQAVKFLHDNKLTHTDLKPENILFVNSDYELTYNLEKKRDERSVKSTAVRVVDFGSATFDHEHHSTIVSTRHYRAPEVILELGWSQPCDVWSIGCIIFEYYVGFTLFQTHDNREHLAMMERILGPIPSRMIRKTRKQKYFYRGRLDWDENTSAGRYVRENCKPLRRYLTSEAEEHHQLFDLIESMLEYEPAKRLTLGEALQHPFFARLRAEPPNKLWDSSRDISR
T15 sequence (Q8WTQ7 whole entry): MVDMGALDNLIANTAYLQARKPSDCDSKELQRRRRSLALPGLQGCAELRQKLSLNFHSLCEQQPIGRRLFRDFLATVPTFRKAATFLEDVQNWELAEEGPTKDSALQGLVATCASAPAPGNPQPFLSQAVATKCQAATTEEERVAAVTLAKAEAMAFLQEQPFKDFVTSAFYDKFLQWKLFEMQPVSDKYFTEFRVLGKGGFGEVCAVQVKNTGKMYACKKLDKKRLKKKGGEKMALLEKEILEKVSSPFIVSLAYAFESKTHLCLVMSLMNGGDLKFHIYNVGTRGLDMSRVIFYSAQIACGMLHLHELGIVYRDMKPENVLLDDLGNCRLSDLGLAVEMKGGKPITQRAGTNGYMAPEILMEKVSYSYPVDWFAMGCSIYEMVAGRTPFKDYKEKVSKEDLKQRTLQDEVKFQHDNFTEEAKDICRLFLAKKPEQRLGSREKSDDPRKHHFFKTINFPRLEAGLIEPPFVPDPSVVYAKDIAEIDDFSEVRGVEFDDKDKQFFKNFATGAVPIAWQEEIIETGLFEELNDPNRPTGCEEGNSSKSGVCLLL
T17 sequence (Q96SB4 whole entry): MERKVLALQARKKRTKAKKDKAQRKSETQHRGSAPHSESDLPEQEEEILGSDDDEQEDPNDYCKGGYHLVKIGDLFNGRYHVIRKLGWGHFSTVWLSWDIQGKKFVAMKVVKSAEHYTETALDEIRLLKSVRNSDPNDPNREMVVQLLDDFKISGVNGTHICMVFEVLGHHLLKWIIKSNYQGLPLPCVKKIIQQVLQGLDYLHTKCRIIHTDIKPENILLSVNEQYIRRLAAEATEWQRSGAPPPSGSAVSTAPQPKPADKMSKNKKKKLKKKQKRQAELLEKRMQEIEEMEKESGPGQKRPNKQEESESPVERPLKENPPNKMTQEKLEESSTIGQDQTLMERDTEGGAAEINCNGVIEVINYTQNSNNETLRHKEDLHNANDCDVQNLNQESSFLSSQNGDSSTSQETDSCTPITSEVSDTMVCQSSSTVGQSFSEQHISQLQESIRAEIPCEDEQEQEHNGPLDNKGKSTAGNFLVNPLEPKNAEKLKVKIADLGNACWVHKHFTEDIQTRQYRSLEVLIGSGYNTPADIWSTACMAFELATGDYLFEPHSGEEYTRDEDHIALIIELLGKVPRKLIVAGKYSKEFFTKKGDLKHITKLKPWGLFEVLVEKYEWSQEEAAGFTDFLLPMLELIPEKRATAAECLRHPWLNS

Avg POC (PKCtheta): 105 POC | Avg POC (BTK): 119.5 POC | Avg POC (mTOR): 102.5 POC | Avg POC (ALK): 105 POC | Avg POC (IRR): 99.5 POC | Avg POC (EphA3): 117 POC | Avg POC (CAMK1): 96 POC | Avg POC (Lck): 94.5 POC | Avg POC (ROCK-I): 117.5 POC | Avg POC (p38delta): 100.5 POC | Avg POC (ZAP-70): 141.5 POC | Avg POC (ITK): 125 POC | Avg POC (LKB1): 90.5 POC | Avg POC (DAPK2): 104.5 POC | Avg POC (GRK7): 115 POC | Avg POC (IR): 95 POC | Avg POC (SRPK1): 112.5 POC | Avg POC (CLK2): 111.5 POC | Avg POC (FGFR3): 106.5 POC | Avg POC (Flt3): 81 POC | Avg POC (Rsk1): 118 POC | Avg POC (PDGFRbeta): 134 POC | Avg POC (TAO2): 126 POC | Avg POC (CLK3): 105 POC | Avg POC (Met): 110.5 POC | Avg POC (PRK2): 101.5 POC | Avg POC (MLK1): 110.5 POC | Avg POC (PKAC-alpha): 149 POC | Avg POC (CK2alpha2): 112.5 POC | Avg POC (EphA2): 104 POC | Avg POC (p38beta): 106.5 POC | Avg POC (eEF-2K): 181 POC | Avg POC (PAK6): 148 POC | Avg POC (BLK_m): 118.5 POC | Avg POC (JNK2alpha2): 92 POC | Avg POC (Lyn): 84.5 POC | Avg POC (PASK): 188 POC | Avg POC (MST3): 137 POC | Avg POC (Pim-3): 105.5 POC | Avg POC (Fms): 94 POC
Structure (SMILES): COCCCc1cc(Cl)c(Cl)cc1NC(=O)Nc1c(C)c(-c2cnn(C)c2)nn1-c1ccccc1 [Example 15, 1-(4,5-dichloro-2-(3-methoxypropyl)phenyl)-3-(1′,4-dimethyl-1-phenyl-1H,1′H-[3,4′-bipyrazol]-5-yl)urea]
Avg POC (CK1_y): 96.5 POC

— patent US9790210B2, “N-(monocyclic aryl),N'-pyrazolyl-urea, thiourea, guanidine and cyanoguanidine compounds as TrkA kinase inhibitors” (Array BioPharma Inc., priority 2012, dated 2017)
